# Values quoted from earlier work in patent US8278291B1, “Treatment of wrinkles and strias with 4-hydroxyandrostenedione or a derivative thereof” (Curadis GmbH, priority 1999, dated 2012).
# Columns and labels:
# aromatase = biological target: T1, aromatase (Homo sapiens, UniProt P11511); conditions: described in the literature
# T1 sequence (P11511 1-503): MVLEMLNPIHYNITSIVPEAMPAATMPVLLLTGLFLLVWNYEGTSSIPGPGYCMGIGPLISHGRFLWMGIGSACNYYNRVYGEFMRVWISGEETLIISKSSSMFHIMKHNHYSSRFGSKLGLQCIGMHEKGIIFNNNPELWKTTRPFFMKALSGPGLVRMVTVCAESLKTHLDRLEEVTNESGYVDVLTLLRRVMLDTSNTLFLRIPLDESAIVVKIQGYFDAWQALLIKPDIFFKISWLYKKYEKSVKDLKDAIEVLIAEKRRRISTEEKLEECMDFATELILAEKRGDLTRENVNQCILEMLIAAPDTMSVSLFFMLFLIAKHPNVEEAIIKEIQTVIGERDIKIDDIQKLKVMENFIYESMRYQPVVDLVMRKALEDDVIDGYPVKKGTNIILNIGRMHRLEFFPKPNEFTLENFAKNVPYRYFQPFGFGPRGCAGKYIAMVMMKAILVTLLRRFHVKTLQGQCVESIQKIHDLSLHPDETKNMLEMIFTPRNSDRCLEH
# 5-alpha-reductase = conditions: described in the literature, higher concentrations
# sebaceous gland = conditions: topical, male fuzzy rat, Ye 1997
# [1] = applied to the head of monkeys over 27 weeks, versus untreated individuals, Rittmaster 1987
compound,measurement,setting,value
"C[C@]12CCC(=O)C(O)=C1CC[C@@H]1[C@@H]2CC[C@]2(C)C(=O)CC[C@@H]12 [4-hydroxyandrostendione, 4-hydroxyandrost-4-ene-3,17-dione]",critical concentration for aromatase,aromatase,about 3 nano mole/L
same,concentration that can also inhibit 5-alpha-reductase,5-alpha-reductase,3 micro mole/L
"CC(C)(C)NC(=O)[C@H]1CC[C@H]2[C@@H]3CC[C@H]4NC(=O)C=C[C@]4(C)[C@H]3CC[C@]12C [Finasterid, N-tert-butyl-3-oxo-4-aza-5α-androst-1-ene-17-β-carboxamide]",effect in the sebaceous gland model compared with MK 386,sebaceous gland,little more effective than MK 386
same,effect in the sebaceous gland model compared with RU58841,sebaceous gland,much lower effects
"CC(C)CCC[C@@H](C)[C@H]1CC[C@H]2[C@@H]3[C@@H](C)C[C@H]4N(C)C(=O)CC[C@]4(C)[C@H]3CC[C@]12C [MK 386, 4,7-beta-dimethyl-4-azacholestane-3-one]",effect in the sebaceous gland model compared with RU58841,sebaceous gland,much lower effects
"CCN(CC)C(=O)[C@H]1CC[C@H]2[C@@H]3CC[C@H]4N(C)C(=O)CC[C@]4(C)[C@H]3CC[C@]12C [Example 4-MA, 17-beta-N,N-diethylcarbamoyl-4-methyl-4-aza-5-alpha-androstan-3-one]",signs of boldness,[1],did not have any signs of a boldness
